# Results as given in patent publication US20050250801A1, “Method of treating cancer with azaspirane compositions” (priority 2003, published 2005).
# Like-named read-outs stand apart in the source and are kept apart here.
# Columns and labels:
# Assay type in all cases: cell-based
# KM12 = experiment: NCI in vitro SRB assay, Colon Cancer; conditions: for CC50 / GI50: Homo sapiens
# Experimental: (§1) An in vitro assay which tested the ability of N,N,-diethyl-8,8-dipropyl-2-azaspiro[4,5]decane-2-propanamine dimaleate (Compound 1) to inhibit the growth of known cancer cell lines was performed by the National Cancer Institute in accordance with standard procedures. See: Lin, Z. X., Hoult, J. R., and Raman, A. Sulphorhodamine B assay for measuring proliferation of a pigmented melanocyte cell line and its application to the evaluation of crude drugs used in the treatment of vitiligo. J Ethnopharmacol. 66: 141-150, 1999. Briefly, selected tumor cell lines were cultured in media containing five different concentrations of Compound 1. After 48 hours of continuous exposure, a sulforhodamine B (SRB) assay was used to estimate cell viability or growth via optical measurements.
# (§2) From the measurements, the following values were determined: 1) the concentration of Compound 1 at which a tumor cell growth inhibition of 50% (relative to control) occurs (GI50), 2) the concentration of Compound 1 at which no growth occurs (total growth inhibition, TGI), and 3) the concentration of Compound 1 at which the […] (LC 50). […] FIG. 6 illustrates, graphically, tumor cell growth as a function of Compound 1 concentration of the scanned tumor cell lines.
# SW-620 = experiment: NCI in vitro SRB assay, Colon Cancer; conditions: for CC50 / GI50: Homo sapiens
# Experimental: as §1, §2
# HCT-15 = experiment: NCI in vitro SRB assay, Colon Cancer; conditions: for CC50 / GI50: Homo sapiens
# Experimental: as §1, §2
# HCT-116 = experiment: NCI in vitro SRB assay, Colon Cancer; conditions: for CC50 / GI50: Homo sapiens
# Experimental: as §1, §2
# HCC-2998 = experiment: NCI in vitro SRB assay, Colon Cancer; conditions: for CC50 / GI50: Homo sapiens
# Experimental: as §1, §2
# HOP-62 = experiment: NCI in vitro SRB assay, Non-Small Cell Lung Cancer; conditions: for CC50 / GI50: Homo sapiens
# Experimental: as §1, §2
# PC-3 = experiment: NCI in vitro SRB assay, Prostate Cancer; conditions: for CC50 / GI50: Homo sapiens
# Experimental: as §1, §2
# DU-145 = experiment: NCI in vitro SRB assay, Prostate Cancer; conditions: for GI50: Homo sapiens
# Experimental: as §1, §2
# [1] = SW-620, Log10 conc -4.0 Moles/L
# [2] = SW-620, Log10 conc -5.0 Moles/L
# [3] = SW-620, Log10 conc -6.0 Moles/L
# [4] = SW-620, Log10 conc -7.0 Moles/L
# [5] = SW-620, Log10 conc -8.0 Moles/L
# [6] = HCT-15, Log10 conc -4.0 Moles/L
# [7] = HCT-15, Log10 conc -5.0 Moles/L
# [8] = HCT-15, Log10 conc -6.0 Moles/L
# [9] = HCT-15, Log10 conc -7.0 Moles/L
# [10] = HCT-15, Log10 conc -8.0 Moles/L
# [11] = HCT-116, Log10 conc -4.0 Moles/L
# [12] = HCT-116, Log10 conc -5.0 Moles/L
# [13] = HCT-116, Log10 conc -6.0 Moles/L
# [14] = HCT-116, Log10 conc -7.0 Moles/L
# [15] = HCT-116, Log10 conc -8.0 Moles/L
# [16] = HCC-2998, Log10 conc -4.0 Moles/L
# [17] = HCC-2998, Log10 conc -5.0 Moles/L
# [18] = HCC-2998, Log10 conc -6.0 Moles/L
# [19] = HCC-2998, Log10 conc -7.0 Moles/L
# [20] = HCC-2998, Log10 conc -8.0 Moles/L
# [21] = HOP-62, Log10 conc -4.0 Moles/L
# [22] = HOP-62, Log10 conc -5.0 Moles/L
# [23] = HOP-62, Log10 conc -6.0 Moles/L
# [24] = HOP-62, Log10 conc -7.0 Moles/L
# [25] = HOP-62, Log10 conc -8.0 Moles/L
compound,measurement,setting,value
"CCCC1(CCC)CCC2(CCN(CCCN(CC)CC)C2)CC1.O=C(O)/C=C\C(=O)O.O=C(O)/C=C\C(=O)O [Compound 1, N,N,-diethyl-8,8-dipropyl-2-azaspiro[4,5]decane-2-propanamine dimaleate]",CC50,"KM12; KM12, read-out: LC50",7130 nM
same,CC50,"KM12; KM12, read-out: Log10 LC50 (converted)",7080 nM
same,GI50,"KM12; KM12, read-out: GI50",1510 nM
same,GI50,"KM12; KM12, read-out: Log10 GI50 (converted)",1510 nM
same,Log10 TGI,KM12; KM12,−5.48
same,TGI,KM12; KM12,3290 nM
same,Mean Optical Densities,"KM12; KM12, Log10 conc -4.0 Moles/L",0.210
same,Percent Growth,"KM12; KM12, Log10 conc -4.0 Moles/L",−52%
same,Mean Optical Densities,"KM12; KM12, Log10 conc -5.0 Moles/L",0.123
same,Percent Growth,"KM12; KM12, Log10 conc -5.0 Moles/L",−72%
same,Mean Optical Densities,"KM12; KM12, Log10 conc -6.0 Moles/L",1.243
same,Percent Growth,"KM12; KM12, Log10 conc -6.0 Moles/L",77%
same,Mean Optical Densities,"KM12; KM12, Log10 conc -7.0 Moles/L",1.402
same,Percent Growth,"KM12; KM12, Log10 conc -7.0 Moles/L",92%
same,Mean Optical Densities,"KM12; KM12, Log10 conc -8.0 Moles/L",1.429
same,Percent Growth,"KM12; KM12, Log10 conc -8.0 Moles/L",94%
same,CC50,"SW-620; SW-620, read-out: LC50",5170 nM
same,CC50,"SW-620; SW-620, read-out: Log10 LC50 (converted)",5130 nM
same,GI50,"SW-620; SW-620, read-out: GI50",1380 nM
same,GI50,"SW-620; SW-620, read-out: Log10 GI50 (converted)",1380 nM
same,Log10 TGI,SW-620; SW-620,−5.57
same,TGI,SW-620; SW-620,2670 nM
same,Mean Optical Densities,SW-620; [1],−0.016
same,Percent Growth,SW-620; [1],−100%
same,Mean Optical Densities,SW-620; [2],−0.002
same,Percent Growth,SW-620; [2],−100%
same,Mean Optical Densities,SW-620; [3],0.789
same,Percent Growth,SW-620; [3],75%
same,Mean Optical Densities,SW-620; [4],0.948
same,Percent Growth,SW-620; [4],95%
same,Mean Optical Densities,SW-620; [5],0.948
same,Percent Growth,SW-620; [5],95%
same,Log10 TGI,HCT-15; HCT-15,−5.87
same,TGI,HCT-15; HCT-15,1340 nM
same,Mean Optical Densities,HCT-15; [6],−0.026
same,Percent Growth,HCT-15; [6],−100%
same,Mean Optical Densities,HCT-15; [7],−0.027
same,Percent Growth,HCT-15; [7],−100%
same,Mean Optical Densities,HCT-15; [8],0.371
same,Percent Growth,HCT-15; [8],14%
same,Mean Optical Densities,HCT-15; [9],0.819
same,Percent Growth,HCT-15; [9],75%
same,Mean Optical Densities,HCT-15; [10],0.878
same,Percent Growth,HCT-15; [10],83%
same,CC50,"HCT-15; HCT-15, read-out: LC50",3650 nM
same,CC50,"HCT-15; HCT-15, read-out: Log10 LC50 (converted)",3630 nM
same,GI50,"HCT-15; HCT-15, read-out: GI50",261 nM
same,GI50,"HCT-15; HCT-15, read-out: Log10 GI50 (converted)",263 nM
same,Log10 TGI,HCT-116; HCT-116,−5.63
same,TGI,HCT-116; HCT-116,2370 nM
same,Mean Optical Densities,HCT-116; [11],0.061
same,Percent Growth,HCT-116; [11],−63%
same,Mean Optical Densities,HCT-116; [12],0.051
same,Percent Growth,HCT-116; [12],−69%
same,Mean Optical Densities,HCT-116; [13],0.407
same,Percent Growth,HCT-116; [13],41%
same,Mean Optical Densities,HCT-116; [14],0.675
same,Percent Growth,HCT-116; [14],87%
same,Mean Optical Densities,HCT-116; [15],0.744
same,Percent Growth,HCT-116; [15],99%
same,CC50,"HCT-116; HCT-116, read-out: LC50",6730 nM
same,CC50,"HCT-116; HCT-116, read-out: Log10 LC50 (converted)",6760 nM
same,GI50,"HCT-116; HCT-116, read-out: GI50",646 nM
same,GI50,"HCT-116; HCT-116, read-out: Log10 GI50 (converted)",646 nM
same,Log10 TGI,HCC-2998; HCC-2998,−6.62
same,TGI,HCC-2998; HCC-2998,239 nM
same,Mean Optical Densities,HCC-2998; [16],0.036
same,Percent Growth,HCC-2998; [16],−84%
same,Mean Optical Densities,HCC-2998; [17],0.019
same,Percent Growth,HCC-2998; [17],−92%
same,Mean Optical Densities,HCC-2998; [18],0.057
same,Percent Growth,HCC-2998; [18],−74%
same,Mean Optical Densities,HCC-2998; [19],0.303
same,Percent Growth,HCC-2998; [19],45%
same,Mean Optical Densities,HCC-2998; [20],0.338
same,Percent Growth,HCC-2998; [20],64%
same,CC50,"HCC-2998; HCC 2998, read-out: LC50",628 nM
same,CC50,"HCC-2998; HCC 2998, read-out: Log10 LC50 (converted)",631 nM
same,GI50,"HCC-2998; HCC-2998, read-out: GI50",54.9 nM
same,GI50,"HCC-2998; HCC-2998, read-out: Log10 GI50 (converted)",55 nM
same,Log10 TGI,HOP-62; HOP-62,−5.54
same,TGI,HOP-62; HOP-62,2910 nM
same,Mean Optical Densities,HOP-62; [21],0.090
same,Percent Growth,HOP-62; [21],−79%
same,Mean Optical Densities,HOP-62; [22],0.056
same,Percent Growth,HOP-62; [22],−87%
same,Mean Optical Densities,HOP-62; [23],0.693
same,Percent Growth,HOP-62; [23],75%
same,Mean Optical Densities,HOP-62; [24],0.757
same,Percent Growth,HOP-62; [24],93%
same,Mean Optical Densities,HOP-62; [25],0.711
same,Percent Growth,HOP-62; [25],80%
same,CC50,"HOP-62; HOP-62, read-out: LC50",5930 nM
same,CC50,"HOP-62; HOP-62, read-out: Log10 LC50 (converted)",5890 nM
same,GI50,"HOP-62; HOP-62, read-out: GI50",1430 nM
same,GI50,"HOP-62; HOP-62, read-out: Log10 GI50 (converted)",1450 nM
same,CC50,"PC-3; PC-3, read-out: LC50",6680 nM
same,CC50,"PC-3; PC-3, read-out: Log10 LC50 (converted)",6610 nM
same,GI50,"PC-3; PC-3, read-out: GI50",1710 nM
same,GI50,"PC-3; PC-3, read-out: Log10 GI50 (converted)",1700 nM
same,Log10 TGI,PC-3; PC-3,−5.47
same,TGI,PC-3; PC-3,3380 nM
same,Mean Optical Densities,"PC-3; PC-3, Log10 conc -4.0 Moles/L",0.037
same,Percent Growth,"PC-3; PC-3, Log10 conc -4.0 Moles/L",−90%
same,Mean Optical Densities,"PC-3; PC-3, Log10 conc -5.0 Moles/L",0.073
same,Percent Growth,"PC-3; PC-3, Log10 conc -5.0 Moles/L",−80%
same,Mean Optical Densities,"PC-3; PC-3, Log10 conc -6.0 Moles/L",1.953
same,Percent Growth,"PC-3; PC-3, Log10 conc -6.0 Moles/L",89%
same,Mean Optical Densities,"PC-3; PC-3, Log10 conc -7.0 Moles/L",2.067
same,Percent Growth,"PC-3; PC-3, Log10 conc -7.0 Moles/L",96%
same,Mean Optical Densities,"PC-3; PC-3, Log10 conc -8.0 Moles/L",2.116
same,Percent Growth,"PC-3; PC-3, Log10 conc -8.0 Moles/L",99%
same,Log10 TGI,DU-145,−5.51
same,TGI,DU-145,3090 nM
same,GI50,DU-145; read-out: GI50,1700 nM
same,GI50,DU-145; read-out: Log10 GI50 (converted),1700 nM
same,Mean Optical Densities,DU-145; Log10 conc -4.0 Moles/L,−0.032
same,Percent Growth,DU-145; Log10 conc -4.0 Moles/L,−100%
same,Mean Optical Densities,DU-145; Log10 conc -5.0 Moles/L,0.005
same,Percent Growth,DU-145; Log10 conc -5.0 Moles/L,−98%
same,Mean Optical Densities,DU-145; Log10 conc -6.0 Moles/L,0.733
same,Percent Growth,DU-145; Log10 conc -6.0 Moles/L,94%
same,Mean Optical Densities,DU-145; Log10 conc -7.0 Moles/L,0.766
same,Percent Growth,DU-145; Log10 conc -7.0 Moles/L,101%
same,Mean Optical Densities,DU-145; Log10 conc -8.0 Moles/L,0.728
same,Percent Growth,DU-145; Log10 conc -8.0 Moles/L,93%
